This assay deals with T lymphocytes (normal mouse spleen cells) stimulated with ConA. The assay can be described thus: Mouse Spleen Cell ConA Blastogenesis Assay. The assay is classed as cell-based, mouse (C57Bl/6). The conditions noted are these: for inhibition at 1 µg/mL / inhibition at 2.5 µg/mL / inhibition at 10 µg/mL / inhibition at 25 µg/mL / inhibition at 100 µg/mL / inhibition at 0.001 µg/mL / inhibition at 0.01 µg/mL / inhibition at 0.1 µg/mL: Mus musculus, T-lymphocyte; for strong antiproliferative effect on ConA blastogenic response: concentration not given.

The mark [1] stands for this setting: ConA 1 ug/ml, compound 1 ug/ml, read-out: % change from control, ConA blastogenic response.
Setting [2] is: ConA 1 ug/ml, compound 2.5 ug/ml, read-out: % change from control, ConA blastogenic response.
Where [3] appears, read: ConA 1 ug/ml, compound 10 ug/ml, read-out: % change from control, ConA blastogenic response.
Setting [4] is: ConA 1 ug/ml, compound 25 ug/ml, read-out: % change from control, ConA blastogenic response.
[5] abbreviates: ConA 1 ug/ml, compound 100 ug/ml, read-out: % change from control, ConA blastogenic response.
Where [6] appears, read: ConA 4 ug/ml, compound 1 ug/ml, read-out: % change from control, ConA blastogenic response.
Where [7] appears, read: ConA 4 ug/ml, compound 2.5 ug/ml, read-out: % change from control, ConA blastogenic response.
The mark [8] stands for this setting: ConA 4 ug/ml, compound 10 ug/ml, read-out: % change from control, ConA blastogenic response.
Setting [9] is: ConA 4 ug/ml, compound 25 ug/ml, read-out: % change from control, ConA blastogenic response.
The mark [10] stands for this setting: ConA 4 ug/ml, compound 100 ug/ml, read-out: % change from control, ConA blastogenic response.
Setting [11] is: ConA 1 ug/ml, compound 0.01 ug/ml, read-out: % change from control, ConA blastogenic response.
Setting [12] is: ConA 1 ug/ml, compound 0.1 ug/ml, read-out: % change from control, ConA blastogenic response.
Where [13] appears, read: ConA 4 ug/ml, compound 0.01 ug/ml, read-out: % change from control, ConA blastogenic response.
Where [14] appears, read: ConA 4 ug/ml, compound 0.1 ug/ml, read-out: % change from control, ConA blastogenic response.

Read-outs that look alike come from different tables or passages of the source.

Regarding `CC1(C)OC2OC(C(O)COCCCc3ccccc3)C(O)C2O1` [IIIe, 1,2-O-Isopropylidene-6-O-3'-(phenylpropyl)-α-D-glucofuranose], the “strong antiproliferative effect on ConA blastogenic response” value is “greater than -50 % of control”. The inhibition at 1 µg/mL under setting [1] was 78%. Moreover, under setting [2], the inhibition at 2.5 µg/mL is 94%. The inhibition at 10 µg/mL under setting [3] was 98%. Under setting [4], the inhibition at 25 µg/mL is 99%. For the same compound, the inhibition at 100 µg/mL under setting [5] was 99%. The inhibition at 1 µg/mL under setting [6] was determined as 76%. In addition, under setting [7], the inhibition at 2.5 µg/mL was determined as 91%. Moreover, the inhibition at 10 µg/mL under setting [8] stood at 97%. Further, the inhibition at 25 µg/mL under setting [9] came to 99%. Moreover, the inhibition at 100 µg/mL under setting [10] came to 100%.

Take `CN1CCCC1CCNC[C@H]1OC(C)(C)O[C@@H]2[C@H]3OC(C)(C)O[C@H]3O[C@@H]21` (some centres unmarked) [IIIi]: the “strong antiproliferative effect on ConA blastogenic response” value was “greater than -50 % of control”. In addition, the inhibition at 1 µg/mL under setting [1] was -25%. Under setting [2], the inhibition at 2.5 µg/mL was -16%. Moreover, the inhibition at 10 µg/mL under setting [3] was -10%. For the same compound, the inhibition at 25 µg/mL under setting [4] stood at 23%. Also, the inhibition at 100 µg/mL under setting [5] came to 91%. For the same compound, under setting [6], the inhibition at 1 µg/mL turned out to be 9%. Under setting [7], the inhibition at 2.5 µg/mL is 14%. Besides, the inhibition at 10 µg/mL under setting [8] was determined as 9%. The inhibition at 25 µg/mL under setting [9] was 50%. The inhibition at 100 µg/mL under setting [10] amounted to 95%.

Take `CCCCCCCOC[C@H]1O[C@@]2(OC)COC(C)(C)O[C@H]2[C@@H]1O` [Ia, methyl 1,3-O-isopropylidene-6-O-heptyl-α-D-fructofuranoside]: the “effect on ConA T lymphocyte proliferation in words” value was “dose-dependent, significant, inhibitory effect”. Further, the “Blastogenic response of normal spleen cells to Con-A” value (shortened to “Blastogenic response … to Con-A”) (ConA 1 ug/ml, compound 0.001 ug/ml) is reported as 52.6 ± 3.8 × 10^-3 cpm. The “Blastogenic response … to Con-A” value (ConA 1 ug/ml, compound 0.01 ug/ml) is 45.1 ± 4.9 × 10^-3 cpm. In addition, the “Blastogenic response … to Con-A” value (ConA 1 ug/ml, compound 0.1 ug/ml) is given as 71.1 ± 4.9 × 10^-3 cpm. Further, the “Blastogenic response … to Con-A” value (ConA 1 ug/ml, compound 1 ug/ml) is reported as 55.7 ± 8.4 × 10^-3 cpm. Moreover, under “ConA 1 ug/ml, compound 2.5 ug/ml”, the “Blastogenic response … to Con-A” value is reported as 47.2 ± 7.0 × 10^-3 cpm. Also, the “Blastogenic response … to Con-A” value (ConA 1 ug/ml, compound 10 ug/ml) is given as 26.5 ± 8.8 × 10^-3 cpm. For the same compound, under “ConA 1 ug/ml, compound 25 ug/ml”, the “Blastogenic response … to Con-A” value is given as 1.5 ± 0.4 × 10^-3 cpm. Besides, where the note is “ConA 1 ug/ml, compound 100 ug/ml”, the “Blastogenic response … to Con-A” value was 0.6 ± 0.1 × 10^-3 cpm. Moreover, where the note is “ConA 4 ug/ml, compound 0.001 ug/ml”, the “Blastogenic response … to Con-A” value is on record as 68.7 ± 5.0 × 10^-3 cpm. Also, the “Blastogenic response … to Con-A” value (ConA 4 ug/ml, compound 0.01 ug/ml) is reported as 72.8 ± 0.8 × 10^-3 cpm. In addition, the “Blastogenic response … to Con-A” value (ConA 4 ug/ml, compound 0.1 ug/ml) is listed as 88.8 ± 2.4 × 10^-3 cpm. In addition, the “Blastogenic response … to Con-A” value (ConA 4 ug/ml, compound 1 ug/ml) is recorded as 77.0 ± 4.2 × 10^-3 cpm. Besides, the “Blastogenic response … to Con-A” value (ConA 4 ug/ml, compound 2.5 ug/ml) was 63.8 ± 2.3 × 10^-3 cpm. The “Blastogenic response … to Con-A” value (ConA 4 ug/ml, compound 10 ug/ml) is listed as 50.2 ± 3.4 × 10^-3 cpm. Moreover, the “Blastogenic response … to Con-A” value (ConA 4 ug/ml, compound 25 ug/ml) is 13.7 ± 2.0 × 10^-3 cpm. Moreover, under “ConA 4 ug/ml, compound 100 ug/ml”, the “Blastogenic response … to Con-A” value was 6.3 ± 2.2 × 10^-3 cpm. For the setting “ConA 1 ug/ml, compound 0.001 ug/ml, read-out: % change from control, ConA blastogenic response”, the inhibition at 0.001 µg/mL stood at 5%. The inhibition at 0.01 µg/mL under setting [11] worked out at 19%. For the same compound, the inhibition at 0.1 µg/mL under setting [12] is -28%. For the same compound, under setting [1], the inhibition at 1 µg/mL is -1%. For the same compound, the inhibition at 2.5 µg/mL under setting [2] was found to be 15%. Besides, under setting [3], the inhibition at 10 µg/mL came out at 52%. Further, the inhibition at 25 µg/mL under setting [4] was 97%. Besides, the inhibition at 100 µg/mL under setting [5] was determined as 99%. The inhibition at 0.001 µg/mL (ConA 4 ug/ml, compound 0.001 ug/ml, read-out: % change from control, ConA blastogenic response) was determined as 19%. Also, the inhibition at 0.01 µg/mL under setting [13] stood at 14%. For the same compound, under setting [14], the inhibition at 0.1 µg/mL is -5%. In addition, the inhibition at 1 µg/mL under setting [6] came out at 9%. In addition, the inhibition at 2.5 µg/mL under setting [7] came to 25%. Besides, the inhibition at 10 µg/mL under setting [8] was determined as 41%. Besides, the inhibition at 25 µg/mL under setting [9] stood at 84%. Also, under setting [10], the inhibition at 100 µg/mL worked out at 93%.

Consider `CCCCC/C=C/COC[C@H]1O[C@@]2(OC)COC(C)(C)O[C@H]2[C@@H]1OC/C=C/CCCCC` [Ie, methyl 1,3-O-isopropylidene-4,6-di-O-(trans,2-octenyl)-α-D-fructofuranoside], for which the inhibition at 0.01 µg/mL (ConA 1 ug/ml, 0.01 ug/ml, read-out: % Change from Control (Table II)) amounted to 2%; the inhibition at 0.01 µg/mL under setting [11] is 22%; the inhibition at 0.01 µg/mL (ConA 4 ug/ml, 0.01 ug/ml, read-out: % Change from Control (Table II)) stood at 8%; the inhibition at 0.01 µg/mL under setting [13] was found to be 4%. The inhibition at 0.1 µg/mL was 18% under setting [12] and 9% under setting [14]. The inhibition at 1 µg/mL runs as follows: under setting [1], 34%; under setting [6], 59%. Also, the inhibition at 2.5 µg/mL is, setting by setting: under setting [2], 72%; under setting [7], 79%. Also, the inhibition at 10 µg/mL is, setting by setting: under setting [3], 91%; under setting [8], 92%. Besides, the inhibition at 25 µg/mL under setting [4] amounted to 99% and the inhibition at 25 µg/mL under setting [9] was 99%. The inhibition at 100 µg/mL worked out at 100% under setting [5] and 100% under setting [10].

The record behind these values is patent US5298494A, “Monosaccharides having anti-proliferation and anti-inflammatory activity, compositions and uses thereof” (Greenwich Pharmaceuticals Incorporated, priority 1993, dated 1994).
